Assay results as given in PMC9454246, “The PqsE Active Site as a Target for Small Molecule Antimicrobial Agents against Pseudomonas aeruginosa” (Biochemistry, 2022).

Key:
PqsE [1] = target: T1, PqsE (Pseudomonas aeruginosa, UniProt P20581); test: Competitive fluorescence polarization with the BB562 active site probe; details: competition with BB562 active site probe for binding to PqsE; one experiment performed in triplicate
T1 construct: made in house
Source text: (a) Structures of the precursor molecules BB391 and BB393 and the hybrid derivative BB580. Positions denoted 1, 2, and 3 were derivatized to explore the binding affinity for the PqsE active site. […] Polarization value for PqsE-BB562 in the absence of a competitor is defined as 100% probe bound. All polarization values were background-subtracted by the reading for the probe in the absence of PqsE (background fluorescence). […] Both the BB584 molecule and key PqsE amino acid sidechains are shown as sticks. Amino acid sidechain carbons are depicted in gray and BB584 carbons are shown in tan. Iron atoms and water molecules are shown as orange and green spheres, respectively. Oxygen and nitrogen atoms are in red and blue, respectively. Hydrogen bonds are shown as dotted yellow lines.
6xHis-PqsE proteins were purified for biochemical assays (tagged) and crystallography (tag removed), as described previously.[24] Enzyme activities of purified 6xHis-PqsE variants were measured as previously reported with MU-butyrate as the substrate.[25] Fluorescence polarization assays with the BB562 active site probe were performed as described.[24] The melting temperature (Tm) of each purified 6xHis-PqsE variant was measured using DSF as described previously.[24] Interaction between PqsE and RhlR proteins in vitro was measured as described previously using pull-down assays.[24] Pyocyanin production by P. aeruginosa PA14 strains carrying pqsE variants on the pUCP18 plasmid was measured as described.[24] The ability of PqsE variants to increase RhlR transcription factor activity in an E. coli reporter assay was assessed as previously described.[24] All small molecule syntheses and characterization are described in the Supporting Information. […]
a Design of Hybrid Scaffold b Core Aromatic Group […]
Engaging Hydrophobic Groove […]
the amide bond orientation. b) Optimization of “position 2”, the core aromatic group. c) Optimization of “position 3”, the hydrophobic tail. Competition curves with the BB562 active site fluorescent probe were f it from the average of triplicates and erro r bars represent standard deviation s. Polarization value for PqsE-BB562 in the absence of competitor is defined as 100% Probe Bound. All polarization values were background-subtracted by the reading for the probe in the absence of PqsE (background fluorescence).

PqsE–RhlR interaction = target: T2, PqsE–RhlR interaction (Pseudomonas aeruginosa, UniProt P20581); test: PqsE–RhlR interaction (in vitro pull-down); format: binding; details: in words
T2 construct: made in house
Experimental: (§1) 6xHis-PqsE proteins were purified for biochemical assays (tagged) and crystallography (tag removed), as described previously.[24] Enzyme activities of purified 6xHis-PqsE variants were measured as previously reported with MU-butyrate as the substrate.[25] Fluorescence polarization assays with the BB562 active site probe were performed as described.[24] The melting temperature (Tm) of each purified 6xHis-PqsE variant was measured using DSF as described previously.[24] Interaction between PqsE and RhlR proteins in vitro was measured as described previously using pull-down assays.[24] Pyocyanin production by P. aeruginosa PA14 strains carrying pqsE variants on the pUCP18 plasmid was measured as described.[24] The ability of PqsE variants to increase RhlR transcription factor activity in an E. coli reporter assay was assessed as previously described.[24] All small molecule syntheses and characterization are described in the Supporting Information.

PqsE [2] = target: T1, PqsE; details: in words; cited from earlier work
PqsE(D73A) = PqsE(D73A) (Pseudomonas aeruginosa, UniProt P20581, D73A); details: read-out: BB562 Binding Kapp; PqsE variant D73A; 2 µM MnCl2
Experimental: (§2) (a) Structure of PqsE(E182W) (blue) overlaid with that of WT PqsE (PDB: 2Q0I, gray). The active site iron atoms are shown in orange. […] (b) Structure of PqsE(E182W/E280A) (maroon) overlaid with that of WT PqsE (as in a). In panels a and b, residue E280 is shown in stick representation. […] Kapp was determined in two independent experiments performed in triplicate. (d) Hydrolysis of 4-methylumbelliferyl butyrate (MU-butyrate) by the designated purified PqsE proteins. Values are represented as % activity of WT PqsE protein. Results are the average of two independent experiments performed in triplicate. Error bars represent standard deviations. (e) First derivative plots (dF/dT is defined as the change in SYPRO Orange fluorescence divided by change in temperature) of melting curves for the designated PqsE proteins. The peak of each curve is defined as the Tm of that protein.
as §1
(§3) a Stability of PqsE Proteins WT
(§4) Hydrolysis of MU-butyrate
(§5) Fig. S3. Biochemical characterization of purified PqsE variants. a) First derivative plots of melt curves for
(§6) PqsE prot eins. All proteins were tested at 5 µM with 200 µM MnCl 2. dF/dT indicates the change in SYPRO
(§7) Orange fluorescence divided by the change in tempera ture.
(§8) Results are the average of two independent experiments performed in triplicate.
(§9) Error bars represent standard deviations.

PqsE(D73A/E182W) = PqsE(D73A/E182W) (Pseudomonas aeruginosa, UniProt P20581, D73A/E182W); details: read-out: BB562 Binding Kapp; PqsE variant D73A/E182W; 2 µM MnCl2; error ND (could not be calculated)
Experimental: as §2, §1, §3, §4, §5, §6, §7, §8, §9

PqsE(D73A/E280A) = PqsE(D73A/E280A) (Pseudomonas aeruginosa, UniProt P20581, D73A/E280A); details: read-out: BB562 Binding Kapp; PqsE variant D73A/E280A; 2 µM MnCl2
Experimental: as §2, §1, §3, §4, §5, §6, §7, §8, §9

PqsE(D73A/NI) = PqsE(D73A/NI) (Pseudomonas aeruginosa, UniProt P20581, D73A/R243A/R246A/R247A); details: read-out: BB562 Binding Kapp; PqsE variant D73A/NI; 2 µM MnCl2; error ND (could not be calculated)
Experimental: as §2, §1, §3, §4, §5, §6, §7, §8, §9

PqsE(E182W) = PqsE(E182W) (Pseudomonas aeruginosa, UniProt P20581, E182W)
Experimental: as §2, §1, §3, §4, §5, §6, §7, §8, §9

PqsE(E182W/E280A) = PqsE(E182W/E280A) (Pseudomonas aeruginosa, UniProt P20581, E182W/E280A)
Experimental: as §2, §1, §3, §4, §5, §6, §7, §8, §9

PqsE(E182W/NI) = PqsE(E182W/NI) (Pseudomonas aeruginosa, UniProt P20581, E182W/R243A/R246A/R247A); details: read-out: BB562 Binding Kapp; PqsE variant E182W/NI; 2 µM MnCl2; error ND (could not be calculated)
Experimental: as §2, §1, §3, §4, §5, §6, §7, §8, §9

PqsE(E280A) = PqsE(E280A) (Pseudomonas aeruginosa, UniProt P20581, E280A); details: read-out: BB562 Binding Kapp; PqsE variant E280A; 2 µM MnCl2
Experimental: as §2, §1, §3, §4, §5, §6, §7, §8, §9

PqsE(NI) = PqsE(NI) (Pseudomonas aeruginosa, UniProt P20581, R243A/R246A/R247A); details: read-out: BB562 Binding Kapp; PqsE variant NI (R243A/R246A/R247A); 2 µM MnCl2
Experimental: as §2, §1, §3, §4, §5, §6, §7, §8, §9

PqsE(NI/E280A) = PqsE(NI/E280A) (Pseudomonas aeruginosa, UniProt P20581, E280A/R243A/R246A/R247A); details: read-out: BB562 Binding Kapp; PqsE variant NI/E280A; 2 µM MnCl2
Experimental: as §2, §1, §3, §4, §5, §6, §7, §8, §9

WT PqsE = WT PqsE (Pseudomonas aeruginosa, UniProt P20581); details: read-out: BB562 Binding Kapp, 2 µM MnCl2, two independent experiments in triplicate
Experimental: as §2, §1, §3, §4, §5, §6, §7, §8, §9

For `O=C(Nc1cccc(-c2ccn[nH]2)c1)c1cccc2cn[nH]c12` [BB391], the EC50 (PqsE [1]) is given as 160 ± 54 nM, the “inhibition/disruption of the PqsE–RhlR interaction” value (shortened to “inhibition/disruption”) (PqsE–RhlR interaction) is given as “none of the three compounds disrupt the PqsE–RhlR interaction” and the “competition with the BB562 active site probe for binding to PqsE” value (PqsE [2]) is given as “mid-nanomolar”.

In the case of `CCC(C)(CNC(=O)Nc1ccc(C(=O)Nc2nccs2)cc1)N1CCOCC1` (stereo not drawn) [BB393], the EC50 (PqsE [1]) is listed as 93 ± 29 nM, the “inhibition/disruption” value (PqsE–RhlR interaction) is listed as “none of the three compounds disrupt the PqsE–RhlR interaction” and the “competition with the BB562 active site probe for binding to PqsE” value (PqsE [2]) is listed as “mid-nanomolar”.

With `O=C(NCCCn1cc(-c2ccc(NC(=O)c3cccc4cn[nH]c34)cc2)nn1)c1ccc2c(c1)C(=O)OC21c2ccc(O)cc2Oc2cc(O)ccc21` [BB562] the Kd (PqsE(D73A)) was 507 ± 380 nM, the Kd (PqsE(D73A/E182W)) was 8120 nM and the Kd (PqsE(D73A/E280A)) was 468 ± 300 nM. For the same compound, the Kd (PqsE(D73A/NI)) was 564 nM, the “binding affinity for the active site fluorescent probe” value (PqsE(E182W); PqsE(E182W), in words, relative to WT PqsE) was “reduced binding affinity” and the Kd (PqsE(E182W); read-out: BB562 Binding Kapp, PqsE variant E182W, 2 µM MnCl2) was 5730 ± 4000 nM. The “binding affinity for the active site fluorescent probe” value (PqsE(E182W/E280A); PqsE(E182W/E280A), in words, relative to WT PqsE) was “WT binding affinity”, the Kd (PqsE(E182W/E280A); read-out: BB562 Binding Kapp, PqsE variant E182W/E280A, 2 µM MnCl2) was 418 ± 160 nM and the Kd (PqsE(E182W/NI)) was 4330 nM. The Kd (PqsE(E280A)) was 210 ± 90 nM, the Kd (PqsE(NI)) was 428 ± 100 nM and the Kd (PqsE(NI/E280A)) was 669 ± 220 nM. It also gave a Kd (WT PqsE) of 416 ± 170 nM.

Work on `CCC(C)(CNC(=O)Nc1ccc(NC(=O)c2cccc3cn[nH]c23)cc1)N1CCOCC1` (stereo not drawn) [BB580] yielded an EC50 (PqsE [1]) of 99 nM.

In the case of `CCC(C)(CNC(=O)Nc1ccc(C(=O)Nc2cccc3cn[nH]c23)cc1)N1CCOCC1` (stereo not drawn) [BB581], the EC50 (PqsE [1]) is reported as 281 nM.

Compound `O=C(NCc1cnccn1)Nc1ccc(NC(=O)c2cccc3cn[nH]c23)cc1` [BB582] has an EC50 (PqsE [1]) of 302 ± 141 nM.

Compound `O=C(NCc1ccccc1)Nc1ccc(NC(=O)c2cccc3cn[nH]c23)cc1` [BB583] has an EC50 (PqsE [1]) of 71 nM.

With `CC(C)(C)CNC(=O)Nc1ccc(NC(=O)c2cccc3cn[nH]c23)cc1` [BB584] the EC50 (PqsE [1]) was 34 nM and the “inhibition/disruption” value (PqsE–RhlR interaction) was “none of the three compounds disrupt the PqsE–RhlR interaction”.

Work on `CCC(C)(CNC(=O)Nc1cnc(NC(=O)c2cccc3cn[nH]c23)s1)N1CCOCC1` (stereo not drawn) [BB585] yielded an EC50 (PqsE [1]) of over 1000 nM.

Compound `CCC(C)(CNC(=O)Nc1cc(NC(=O)c2cccc3cn[nH]c23)[nH]n1)N1CCOCC1` (stereo not drawn) [BB586] has an EC50 (PqsE [1]) of over 1000 nM.

Compound `CCC(CNC(=O)Nc1ccc(NC(=O)c2cccc3cn[nH]c23)cc1)N1CCOCC1` (stereo not drawn) [BB587] has an EC50 (PqsE [1]) of 273 nM.

For `CC(CNC(=O)Nc1ccc(NC(=O)c2cccc3cn[nH]c23)cc1)N1CCOCC1` (stereo not drawn) [BB588], the EC50 (PqsE [1]) was 290 nM.

For `CCC(C)(CNC(=O)Nc1ccc(NC(=O)c2cccc3cn[nH]c23)nc1)N1CCOCC1` (stereo not drawn) [BB589], the EC50 (PqsE [1]) was 608 ± 647 nM.
